Measured values taken from patent publication US20240317777A1, “NOVEL MACROCYCLIC AMINOPYRAZOLE COMPOUNDS AS CDK2 INHIBITORS” (Accutar Biotechnology Inc., priority 2023, published 2024).
Read-outs that look alike come from different tables or passages of the source.

Tests used:
CDK9-CYCLIN T1 = CDK9-CYCLIN T1 (Homo sapiens, UniProt P50750); assay: CDK protein kinase inhibition by ADP-Glo assay, CDK9-CYCLIN T1; format: biochemical; settings: for IC50: read-out: CDK9-CYCLINT1, IC50
In short: (§1)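 Kinase/cyclin + peptide substrate + cpd + ATP (1000 μM)/MgCl2 (5 mM), HEPES pH 7.5, 22° C; quench, ADP-Glo reagent 45 min RT, detection reagent 10 min, luminescence.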

[1] = tested on: Phospho-Rb (Ser807/811) in OVCAR3 cells; assay: Phospho-Rb expression inhibition in OVCAR3 cells quantified by In Cell Western; format: cell-based; settings: Homo sapiens, OVCAR-3, 24 hours, read-out: OVCAR-3 pRb IC50
In short: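 In-cell western: after 24 h compound exposure at 37° C, fixed OVCAR3 cells co-stained for pRb Ser807/811 (800 nm channel) and total Rb (680 nm channel), imaged by LI-COR Odyssey.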

CDK6-CYCLIN D3 = CDK6-CYCLIN D3 (Homo sapiens, UniProt Q00534); assay: CDK protein kinase inhibition by ADP-Glo assay, CDK6-CYCLIN D3; format: biochemical; settings: for IC50: read-out: CDK6-CYCLIND3, IC50
In short: as §1

[2] = tested on: CCNE1-amplified OVCAR3 cells; assay: Cell growth inhibition of CCNE1-amplified OVCAR3 cells (CellTiter-Glo); format: cell-based; settings: Homo sapiens, OVCAR-3, 144 h, 6 days
In short: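 Growth read-out was CellTiter-Glo luminescence, taken after 10 min at room temperature at the end of a 6-day compound exposure at 37 °C. Compounds were diluted from DMSO stocks across various concentrations.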

CCNE1-normal SKOV3 cells = assay: Cell growth inhibition of CCNE1-normal SKOV3 cells (CellTiter-Glo); format: cell-based; settings: Homo sapiens, SK-OV-3, 144 h, 6 days
In short: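 Growth was measured by CellTiter-Glo luminescence after 6 days' compound exposure at 37 °C. Cells were plated one day before dosing at 1000 per well in medium with 10% FBS, and compounds were diluted from DMSO stocks.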

CDK2-CYCLIN E1 = CDK2-CYCLIN E1 (Homo sapiens, UniProt P24941); assay: CDK protein kinase inhibition by ADP-Glo assay, CDK2-CYCLIN E1; format: biochemical; settings: read-out: CDK2-CYCLINE, IC50
In short: as §1

CDK1-CYCLIN B = CDK1-CYCLIN B (Homo sapiens, UniProt P06493); assay: CDK protein kinase inhibition by ADP-Glo assay, CDK1-CYCLIN B; format: biochemical; settings: for IC50: read-out: CDK1-CYCLINB, IC50
In short: as §1

CDK4-CYCLIN D1 = CDK4-CYCLIN D1 (Homo sapiens, UniProt P11802); assay: CDK protein kinase inhibition by ADP-Glo assay, CDK4-CYCLIN D1; format: biochemical; settings: for IC50: read-out: CDK4-CYCLIND1, IC50
In short: as §1

[3] = Table 35, recombinant CDK kinase

Sequence of CDK6-CYCLIN D3 (Q00534 whole entry): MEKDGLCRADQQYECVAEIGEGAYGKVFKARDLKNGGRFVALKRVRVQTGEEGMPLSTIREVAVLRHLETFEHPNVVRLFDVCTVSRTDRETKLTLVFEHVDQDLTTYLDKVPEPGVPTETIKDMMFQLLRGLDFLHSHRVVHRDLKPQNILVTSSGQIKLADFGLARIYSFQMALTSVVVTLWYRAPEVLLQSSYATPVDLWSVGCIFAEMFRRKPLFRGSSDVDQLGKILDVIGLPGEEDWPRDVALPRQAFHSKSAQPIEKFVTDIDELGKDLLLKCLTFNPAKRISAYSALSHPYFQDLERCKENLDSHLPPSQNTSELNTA
Sequence of CDK6-CYCLIN D3 (P30281 whole entry partner): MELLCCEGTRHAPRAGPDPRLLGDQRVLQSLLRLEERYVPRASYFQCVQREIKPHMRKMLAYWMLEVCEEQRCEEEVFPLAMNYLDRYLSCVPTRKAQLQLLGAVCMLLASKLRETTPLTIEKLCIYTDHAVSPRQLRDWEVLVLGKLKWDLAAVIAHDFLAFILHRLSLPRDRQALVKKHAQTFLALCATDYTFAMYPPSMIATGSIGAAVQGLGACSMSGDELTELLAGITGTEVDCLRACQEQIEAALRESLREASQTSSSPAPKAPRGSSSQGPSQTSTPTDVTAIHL
Sequence of CDK4-CYCLIN D1 (P11802 whole entry): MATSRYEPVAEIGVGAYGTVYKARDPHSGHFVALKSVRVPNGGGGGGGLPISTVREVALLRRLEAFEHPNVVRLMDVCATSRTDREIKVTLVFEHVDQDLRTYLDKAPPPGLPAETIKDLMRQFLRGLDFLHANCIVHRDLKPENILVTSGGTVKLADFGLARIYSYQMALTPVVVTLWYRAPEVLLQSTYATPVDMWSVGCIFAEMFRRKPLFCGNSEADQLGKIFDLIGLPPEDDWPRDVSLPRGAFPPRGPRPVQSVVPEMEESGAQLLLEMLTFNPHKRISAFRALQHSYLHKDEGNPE
Sequence of CDK4-CYCLIN D1 (P24385 whole entry partner): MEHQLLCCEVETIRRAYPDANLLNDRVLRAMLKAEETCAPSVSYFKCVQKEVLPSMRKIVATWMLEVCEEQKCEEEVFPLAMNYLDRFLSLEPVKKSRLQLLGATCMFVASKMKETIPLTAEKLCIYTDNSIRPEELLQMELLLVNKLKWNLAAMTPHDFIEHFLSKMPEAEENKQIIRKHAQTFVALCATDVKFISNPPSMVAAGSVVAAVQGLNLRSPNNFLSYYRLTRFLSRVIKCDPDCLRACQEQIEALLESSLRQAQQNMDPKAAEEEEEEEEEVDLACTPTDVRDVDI
Sequence of CDK1-CYCLIN B (P06493 whole entry): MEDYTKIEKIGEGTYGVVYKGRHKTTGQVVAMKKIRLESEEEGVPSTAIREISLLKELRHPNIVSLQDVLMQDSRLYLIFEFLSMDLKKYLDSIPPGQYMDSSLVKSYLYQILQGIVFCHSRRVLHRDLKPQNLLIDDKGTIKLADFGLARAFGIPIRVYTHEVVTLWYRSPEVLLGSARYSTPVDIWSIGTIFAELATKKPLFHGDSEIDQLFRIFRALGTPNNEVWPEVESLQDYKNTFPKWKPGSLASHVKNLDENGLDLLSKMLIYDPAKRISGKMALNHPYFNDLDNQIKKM
Sequence of CDK1-CYCLIN B (P14635 whole entry partner): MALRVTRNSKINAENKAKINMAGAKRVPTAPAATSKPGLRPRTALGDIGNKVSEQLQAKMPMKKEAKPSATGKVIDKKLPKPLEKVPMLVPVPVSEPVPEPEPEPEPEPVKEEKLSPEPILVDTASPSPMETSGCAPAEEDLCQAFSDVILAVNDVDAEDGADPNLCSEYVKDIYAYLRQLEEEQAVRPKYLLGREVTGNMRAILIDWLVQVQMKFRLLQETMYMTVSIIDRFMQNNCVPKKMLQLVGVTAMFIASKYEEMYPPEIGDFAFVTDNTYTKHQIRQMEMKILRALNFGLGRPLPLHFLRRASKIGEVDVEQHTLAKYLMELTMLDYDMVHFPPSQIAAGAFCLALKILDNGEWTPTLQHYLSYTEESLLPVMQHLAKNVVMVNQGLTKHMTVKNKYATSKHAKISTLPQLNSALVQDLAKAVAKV
Sequence of CDK9-CYCLIN T1 (P50750 whole entry): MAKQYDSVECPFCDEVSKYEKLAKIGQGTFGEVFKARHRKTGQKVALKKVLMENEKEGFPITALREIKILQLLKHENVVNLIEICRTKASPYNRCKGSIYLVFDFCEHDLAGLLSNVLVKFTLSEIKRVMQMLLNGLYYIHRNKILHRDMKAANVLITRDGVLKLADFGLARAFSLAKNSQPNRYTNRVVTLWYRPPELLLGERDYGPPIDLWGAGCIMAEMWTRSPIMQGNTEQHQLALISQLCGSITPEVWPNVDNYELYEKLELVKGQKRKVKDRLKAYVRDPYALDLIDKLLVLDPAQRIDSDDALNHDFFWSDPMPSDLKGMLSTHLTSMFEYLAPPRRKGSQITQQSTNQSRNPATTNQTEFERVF
Sequence of CDK9-CYCLIN T1 (O60563 whole entry partner): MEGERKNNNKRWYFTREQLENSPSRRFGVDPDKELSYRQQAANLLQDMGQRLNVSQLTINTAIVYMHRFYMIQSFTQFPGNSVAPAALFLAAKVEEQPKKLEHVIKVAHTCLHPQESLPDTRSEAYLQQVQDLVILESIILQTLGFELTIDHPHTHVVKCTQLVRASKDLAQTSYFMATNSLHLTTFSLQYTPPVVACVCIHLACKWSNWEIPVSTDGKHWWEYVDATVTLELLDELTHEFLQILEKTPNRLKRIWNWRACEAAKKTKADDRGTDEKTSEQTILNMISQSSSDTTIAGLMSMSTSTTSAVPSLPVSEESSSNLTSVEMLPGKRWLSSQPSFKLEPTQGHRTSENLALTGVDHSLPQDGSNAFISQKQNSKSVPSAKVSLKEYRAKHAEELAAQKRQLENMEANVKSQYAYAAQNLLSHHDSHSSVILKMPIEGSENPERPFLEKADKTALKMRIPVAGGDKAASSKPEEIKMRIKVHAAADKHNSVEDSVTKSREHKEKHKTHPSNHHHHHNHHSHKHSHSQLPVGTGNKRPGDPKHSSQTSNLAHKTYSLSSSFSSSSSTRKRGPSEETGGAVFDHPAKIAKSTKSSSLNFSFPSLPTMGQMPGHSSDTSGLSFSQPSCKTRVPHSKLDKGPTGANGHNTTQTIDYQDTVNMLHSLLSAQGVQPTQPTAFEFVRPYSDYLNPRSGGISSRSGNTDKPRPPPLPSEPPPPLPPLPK

Row | Structure (SMILES) | IC50 (CDK9-CYCLIN T1; ADP-Glo, 1000 μM ATP, Table 11) | CDK2 Fold selectivity, CDK9 (CDK9-CYCLIN T1; CDK2 versus CDK9, Table 12) | IC50 [1] | IC50 (CDK6-CYCLIN D3; ADP-Glo, 1000 μM ATP, Table 11) | CDK2 Fold selectivity, CDK6 (CDK6-CYCLIN D3; CDK2 versus CDK6, Table 12) | IC50 [2] | IC50 (CCNE1-normal SKOV3 cells) | IC50 (CDK2-CYCLIN E1; ADP-Glo, 1000 μM ATP, Table 11) | IC50 (CDK1-CYCLIN B; ADP-Glo, 1000 μM ATP, Table 11) | CDK2 Fold selectivity, CDK1 (CDK1-CYCLIN B; CDK2 versus CDK1, Table 12) | IC50 (CDK4-CYCLIN D1; ADP-Glo, 1000 μM ATP, Table 11) | CDK2 Fold selectivity, CDK4 (CDK4-CYCLIN D1; CDK2 versus CDK4, Table 12) | other results
1 | O=C1N[C@H]2C[C@H](COc3cc(ccn3)Nc3cc(n[nH]3)[C@H]3CC[C@H](C3)O1)C2 [Compound 108, (1^1S,1^3R,7^1R,7^3S,Z)-2^1H-5,10-dioxa-3,8-diaza-4(4,2)-pyridina-2(3,5)-pyrazola-1(1,3)-cyclopentana-7(1,3)-cyclobutanacyclodecaphan-9-one] | 100 to 500 nM | A (A, ≥500) | 2 to 10 nM | 100 to 500 nM | A (A, ≥500) | 2 to 10 nM | 250 to 1250 nM | ≤ 10 nM | 10 to 50 nM | B (B, >100 and ≤500) | 100 to 500 nM | B (B, >100 and ≤500) | IC50 (CDK9-CYCLIN T1; [3]): 50 to 100 nM; CDK2 Fold selectivity against CDK9 (CDK9-CYCLIN T1; Table 36, fold selectivity for CDK2 over CDK9, recombinant CDK kinases): D (D, >20 and ≤50); IC50 (CDK6-CYCLIN D3; [3]): 50 to 100 nM; CDK2 Fold selectivity against CDK6 (CDK6-CYCLIN D3; Table 36, fold selectivity for CDK2 over CDK6, recombinant CDK kinases): D (D, >20 and ≤50); IC50 (CDK2-CYCLIN E1; [3]): ≤ 10 nM; IC50 (CDK1-CYCLIN B; [3]): 10 to 50 nM; CDK2 Fold selectivity against CDK1 (CDK1-CYCLIN B; Table 36, fold selectivity for CDK2 over CDK1, recombinant CDK kinases): E (E, <20); IC50 (CDK4-CYCLIN D1; [3]): 10 to 50 nM; CDK2 Fold selectivity against CDK4 (CDK4-CYCLIN D1; Table 36, fold selectivity for CDK2 over CDK4, recombinant CDK kinases): E (E, <20)
2 | O=C1NC23CC(C/C=C/c4cncc(c4)Nc4cc(n[nH]4)[C@H]4CC[C@H](C4)O1)(C2)C3 [Compound 106, (1^1S,1^3R,2^4Z,5E)-2^1H-11-oxa-3,9-diaza-4(3,5)-pyridina-2(3,5)-pyrazola-8(1,3)-bicyclo[1.1.1]pentana-1(1,3)-cyclopentanacycloundecaphan-5-en-10-one] | – | – | ≤ 2 nM | – | – | ≤ 2 nM | 10 to 50 nM | – | – | – | – | – | IC50 (CDK9-CYCLIN T1; ADP-Glo, 1000 μM ATP, Table 15): ≤ 10 nM; CDK2 Fold selectivity, CDK9 (CDK9-CYCLIN T1; CDK2 versus CDK9, Table 16): E (E, <20); IC50 (CDK6-CYCLIN D3; ADP-Glo, 1000 μM ATP, Table 15): 10 to 50 nM; CDK2 Fold selectivity, CDK6 (CDK6-CYCLIN D3; CDK2 versus CDK6, Table 16): E (E, <20); IC50 (CDK2-CYCLIN E1; ADP-Glo, 1000 μM ATP, Table 15): ≤ 10 nM; IC50 (CDK1-CYCLIN B; ADP-Glo, 1000 μM ATP, Table 15): ≤ 10 nM; CDK2 Fold selectivity, CDK1 (CDK1-CYCLIN B; CDK2 versus CDK1, Table 16): E (E, <20); IC50 (CDK4-CYCLIN D1; ADP-Glo, 1000 μM ATP, Table 15): 10 to 50 nM; CDK2 Fold selectivity, CDK4 (CDK4-CYCLIN D1; CDK2 versus CDK4, Table 16): E (E, <20)
3 | C[C@@H]1CCCOc2cc(ccn2)Nc2cc([nH]n2)[C@H]2CC[C@H](C2)OC(=O)N1 [Compound 10, (1^1S,1^3R,9R,Z)-9-methyl-2^1H-5,12-dioxa-3,10-diaza-4(4,2)-pyridina-2(3,5)-pyrazola-1(1,3)-cyclopentanacyclododecaphan-11-one] | – | – | 10 to 50 nM | – | – | 50 to 250 nM | > 1250 nM | – | – | – | – | – | IC50 (CDK9-CYCLIN T1; ADP-Glo, 1000 μM ATP, Table 7): > 500 nM; CDK2 Fold Sensitivity, CDK9 (CDK9-CYCLIN T1; CDK2 versus CDK9, Table 8): B (B, >100 and ≤500); IC50 (CDK6-CYCLIN D3; ADP-Glo, 1000 μM ATP, Table 7): 100 to 500 nM; CDK2 Fold Sensitivity, CDK6 (CDK6-CYCLIN D3; CDK2 versus CDK6, Table 8): C (C, >50 and ≤100); IC50 (CDK2-CYCLIN E1; ADP-Glo, 1000 μM ATP, Table 7): ≤ 10 nM; IC50 (CDK1-CYCLIN B; ADP-Glo, 1000 μM ATP, Table 7): 100 to 500 nM; CDK2 fold selectivity over CDK1 (CDK1-CYCLIN B; CDK2 versus CDK1, Table 8): D (D, >20 and ≤50); IC50 (CDK4-CYCLIN D1; ADP-Glo, 1000 μM ATP, Table 7): 100 to 500 nM; CDK2 Fold Sensitivity, CDK4 (CDK4-CYCLIN D1; CDK2 versus CDK4, Table 8): C (C, >50 and ≤100)
4 | O=C1NC23CC(COc4cc(cc(C(F)F)n4)Nc4cc([nH]n4)[C@H]4CC[C@H](C4)O1)(C2)C3 [Compound 19, (1^1S,1^3R,Z)-46-(difluoromethyl)-2^1H-5,10-dioxa-3,8-diaza-4(4,2)-pyridina-2(3,5)-pyrazola-7(1,3)-bicyclo[1.1.1]pentana-1(1,3)-cyclopentanacyclodecaphan-9-one] | > 500 nM | A (A, ≥500) | 2 to 10 nM | > 500 nM | B (B, >100 and ≤500) | 10 to 50 nM | > 1250 nM | ≤ 10 nM | 50 to 100 nM | D (D, >20 and ≤50) | > 500 nM | A (A, ≥500) | –
